No end group written: not given here.
How the values were obtained:
[1] = system: Native or MDA-modified peptides 210 and 240; experiment: Determination of antibody titers against peptide (serum IgG/IgM ELISA); format: in vivo, mice; conditions: Example 1; mouse serum 1:50, 405 nm
Protocol: (§1) Male ApoE −/− mice (B&M, RY, DENMARK, 11 week old) were implanted subcutaneously with mini-osmotic pumps (ALZET1002, DURECT CORPORATION) diffusing PBS or 10 μg of P210, MDA-P210 or P240 per day and for 14 day, at a rate of 0.25 μl/h.
Native or MDA-modified peptides 210 and 240 were used for coating (10 μg/ml of each in PBS pH 7.4) microtiter plates (Nunc MaxiSorp, Nunc, Roskilde, Denmark) in an overnight incubation at 4° C. Coated plates were washed with PBS with 0.05% Tween-20 and thereafter blocked with SuperBlock in Tris-buffered saline (TBS, Pierce) for 5 minutes at room temperature followed by an incubation of mouse serum diluted 1:50 in TBS-0.05% Tween-20 for 2 hours at room temperature and overnight at 4° C. After rinsing, depositions were detected by using biotinylated goat anti-mouse IgM or IgG antibodies (JACKSON IMMUNORESEARCH, West Grove, Pa.) that were incubated for 2 hours at room temperature. The plates were washed and bound biotinylated antibodies were detected by alkaline phosphatase-conjugated streptavidin (SIGMA). The color reaction was developed using phosphatase substrate kit (Pierce). The absorbency at 405 nm was measured after 1 hour of incubation at room temperature. Mean values were calculated after subtraction of background absorbance.

[2] = system: Male ApoE −/− mice; experiment: Atherosclerotic lesion size (morphometric analysis) in apoE-/- mice after pump delivery of peptide; format: in vivo; conditions: Example 2; apoE null mice; result in words
Protocol: as §1
Then, the mice are kept for another 6 weeks and killed at 19 weeks of age.
Total Plasma and HDL cholesterol were measured with a commercially available cholesterol kit (SIGMA) according to the manufacturer's instructions. Morphometric and immuno-histochemical studies were performed in the aortic sinus and in the thoracic aorta (spanning from the brachiocephalic artery to the renal arteries). Collagen fibers were stained with Sirius red. Immuno-histochemical analysis were then performed. The following primary antibodies were used: MOMA-2 (BIOSOURCE INTERNATIONAL) as a specific marker for macrophages; anti-mouse CD3− (SANTA CRUZ); anti-smooth muscle actin, alkaline phosphatase conjugate, clone 1A4 (SIGMA); and anti-IL-10 antibody (SANTA CRUZ). Morphometric analysis was performed with an automated image processor (HISTOLAB, MICROVISION).
Male apoE−/− mice (B&M, RY, DENMARK, 11 week old) were implanted subcutaneously with mini-osmotic pumps (ALZET1002, DURECT CORPORATION) diffusing phosphate buffer saline (PBS) as control or 10 μg per day of P210, MDA-P210 or P240, for 14 days, at a rate of […]. An additional group of mice receiving ovalbumin (OVA) peptide (323-339) served as control.
Then, the mice were kept for another 6 or 10 weeks and killed at 19 or 23 weeks of age.
Male apoE−/− mice (11-week old) were implanted subcutaneously with mini-osmotic pumps (ALZET1002) diffusing phosphate buffer saline (PBS), as control, or 10 μg per day of P210, MDA-P210 or P240, for 14 days at a rate of 0.25 μl/h. An additional group of mice receiving ovalbumin (OVA) peptide (323-339) served as control. Mice were kept for another 6 weeks and killed at 19 weeks of age. […]

[3] = system: CD4+ cells; experiment: Cell proliferation assay: CD4+ cells with CD11c+ dendritic cells from treated mice, [3H]-thymidine; format: cell-based; conditions: Example 1; anti-CD3 3 μg/ml, 72 hours; PBS control 20 000 cpm
Source text: T cells were purified from spleen or from draining lymph nodes by negative selection with anti-CD11b (M1/70), anti B220, anti-CD8 and anti-NK cells (DX5) followed by depletion with a mixture of magnetic beads coated with anti-rat Ig (DYNAL). CD11c+ dendritic cells were purified by positive selection with anti-CD11c using directly conjugated anti-CD11c beads (clone N418; MILTENYI BIOTEC).
For the cell proliferation assay, purified CD4+ cells (50 000) were mixed with CD11c+ cells (10 000) and anti-CD3 antibodies (3 μg/ml) for 72 hours. [3H]-Thymidine (1 μCi; PERKIN ELMER) was added for the last 18 hours of cell culture.

Row | Substance | IgG against MDA-P210 [1] | IgG against MDA-P240 [1] | IgG against P210 [1] | IgM against MDA-P210 [1] | IgM against MDA-P240 [1] | IgM against P210 [1] | Effect of continuous administration on atherosclerotic plaques, associated inflammation and plaque composition [2] | Proliferation of CD4+ cells from control mice in the presence of CD11c+ cells from treated mice [3]
1 | FPDLGQEVALNANTKNQKIR (peptide derived from apolipoprotein B) [P240, Human apoB-100 derived peptide, amino acids 3586 to 3605] | 0.62±0.11 absorbance units | 0.037±0.007 absorbance units | 0.47±0.09 absorbance units | 0.79±0.45 absorbance units | 1.34±0.52 absorbance units | 0.79±0.45 absorbance units | – | –
2 | ISQAVHAAHAEINEAGR (peptide derived from ovalbumin) [Control: chicken ovalbumin (OVA) peptide, amino acids 323 to 339, reference compound] | – | – | – | – | – | – | No significant modification | –
3 | KTTKQSFDLSVKAQYKKNKH (peptide derived from apolipoprotein B) [P210, Human apoB-100 derived peptide, amino acids 3136 to 3155] | 1.45±0.49 absorbance units | 0.080±0.038 absorbance units | 0.81±0.22 absorbance units | 1.38±0.04 absorbance units | 1.80±0.41 absorbance units | 1.17±0.22 absorbance units | diminution of the atherosclerotic plaques and of associated inflammation | –
4 | MDA-P210: Malondialdehyde (MDA)-modified human apoB-100 derived peptide; native P210 modified by 0.5 mol/L MDA for 3 hours at 37° C. (KTTKQSFDLSVKAQYKKNKH; not fully specified) | 0.83±0.28 absorbance units | 0.041±0.007 absorbance units | 0.51±0.07 absorbance units | 1.30±0.13 absorbance units | 1.24±0.40 absorbance units | 0.55±0.25 absorbance units | diminution of the atherosclerotic plaques and of associated inflammation | 9500 cpm

Reference: US8324152B2, “Composition for the treatment of atherosclerosis” (Institute National de la Sante et de la Recherche Medicale …, priority 2005, dated 2012)
